According to publication PMC3739791, “Sonic Hedgehog-Induced Histone Deacetylase Activation Is Required for Cerebellar Granule Precursor Hyperplasia in Medulloblastoma” (PLoS ONE, 2013):

Target: T1, HDAC6 (Mus musculus, UniProt Q9Z2V5)
T1 sequence (Q9Z2V5 1-1149): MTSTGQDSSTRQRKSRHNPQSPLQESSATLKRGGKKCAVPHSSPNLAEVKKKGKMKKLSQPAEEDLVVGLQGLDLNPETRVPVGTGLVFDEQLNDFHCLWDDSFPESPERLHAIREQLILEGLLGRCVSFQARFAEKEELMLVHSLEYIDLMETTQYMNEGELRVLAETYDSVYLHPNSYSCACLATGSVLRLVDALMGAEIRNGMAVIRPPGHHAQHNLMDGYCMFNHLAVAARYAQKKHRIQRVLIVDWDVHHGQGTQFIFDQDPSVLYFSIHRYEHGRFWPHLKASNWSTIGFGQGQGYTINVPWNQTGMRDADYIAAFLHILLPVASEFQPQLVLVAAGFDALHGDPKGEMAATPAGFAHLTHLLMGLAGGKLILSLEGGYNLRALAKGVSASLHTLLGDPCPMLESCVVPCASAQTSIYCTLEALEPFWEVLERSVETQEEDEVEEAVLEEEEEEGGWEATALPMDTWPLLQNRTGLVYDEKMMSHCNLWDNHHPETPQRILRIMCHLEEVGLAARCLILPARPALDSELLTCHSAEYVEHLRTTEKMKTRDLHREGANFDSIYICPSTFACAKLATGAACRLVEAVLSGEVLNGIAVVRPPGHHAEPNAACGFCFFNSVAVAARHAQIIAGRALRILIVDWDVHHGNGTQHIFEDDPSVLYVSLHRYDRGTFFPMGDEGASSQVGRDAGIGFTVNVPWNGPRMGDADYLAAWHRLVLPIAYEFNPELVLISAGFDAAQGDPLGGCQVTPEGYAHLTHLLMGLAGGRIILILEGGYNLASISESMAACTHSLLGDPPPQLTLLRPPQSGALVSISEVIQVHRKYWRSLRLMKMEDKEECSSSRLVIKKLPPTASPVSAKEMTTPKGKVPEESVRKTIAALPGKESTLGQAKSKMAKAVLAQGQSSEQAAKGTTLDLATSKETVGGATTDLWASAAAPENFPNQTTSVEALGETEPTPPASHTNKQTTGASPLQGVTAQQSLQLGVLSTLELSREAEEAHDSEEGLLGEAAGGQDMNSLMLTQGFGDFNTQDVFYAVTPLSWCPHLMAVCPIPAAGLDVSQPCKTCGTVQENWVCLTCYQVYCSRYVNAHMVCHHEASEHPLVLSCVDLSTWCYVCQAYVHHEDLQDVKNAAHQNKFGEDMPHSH
Assay: acetylated tubulin immunohistochemistry in brain sections of treated Smo/Smo mice (readout of HDAC6 inhibition in vivo)
Format: cell-based

## CN1CCc2c(c3ccccc3n2Cc2ccc(C(=O)NO)cc2)C1 [Tubastatin A]
  acetylated tubulin immunohistochemistry in brain sections of treated Smo/Smo mic: although tubulin acetylation as a measure for HDAC6 inhibition was increased (Fig. S4)
